# Experimental data published in patent publication US20070259945A1, “METHOD FOR TREATING PAIN” (ALLERGAN, INC., priority 2005, published 2007).
# How the values were obtained:
# [1] = target: fatty acid amide hydrolase (FAAH) (Rattus norvegicus, UniProt P97612)
# [2] = test system: nocifensive response to formalin; experiment: Formalin test, injection into the paw; assay type: in vivo; conditions: injected into the paw; counteracted by AM251 and occluded by capsazepine
# Source text: (§1) The compounds of formula I are novel agents against […], acting by enhancing endocannabinoid levels (via FAAH inhibition) and at the same time by antagonizing TRPV1.
# TRPV1 channels = TRPV1 channels (Homo sapiens, UniProt Q8NER1); experiment: Blocking of TRPV1 channel activation by capsaicin; assay type: cell-based; conditions: capsaicin 100 nM; FIG. 1A; read-out: IC50 against capsaicin
# anandamide levels = experiment: Anandamide levels in the PAG after intra-PAG injection; assay type: in vivo; conditions: rat, 4 μg/rat intra-PAG, measured 20 min following injection
# Source text: as §1
# [3] = test system: nociceptive response to formalin injected into the rat paw; experiment: Formalin test, injection into the periaqueductal grey (PAG); assay type: in vivo
# Source text: as §1
# TRPV1 channels, sequence (Q8NER1 whole entry): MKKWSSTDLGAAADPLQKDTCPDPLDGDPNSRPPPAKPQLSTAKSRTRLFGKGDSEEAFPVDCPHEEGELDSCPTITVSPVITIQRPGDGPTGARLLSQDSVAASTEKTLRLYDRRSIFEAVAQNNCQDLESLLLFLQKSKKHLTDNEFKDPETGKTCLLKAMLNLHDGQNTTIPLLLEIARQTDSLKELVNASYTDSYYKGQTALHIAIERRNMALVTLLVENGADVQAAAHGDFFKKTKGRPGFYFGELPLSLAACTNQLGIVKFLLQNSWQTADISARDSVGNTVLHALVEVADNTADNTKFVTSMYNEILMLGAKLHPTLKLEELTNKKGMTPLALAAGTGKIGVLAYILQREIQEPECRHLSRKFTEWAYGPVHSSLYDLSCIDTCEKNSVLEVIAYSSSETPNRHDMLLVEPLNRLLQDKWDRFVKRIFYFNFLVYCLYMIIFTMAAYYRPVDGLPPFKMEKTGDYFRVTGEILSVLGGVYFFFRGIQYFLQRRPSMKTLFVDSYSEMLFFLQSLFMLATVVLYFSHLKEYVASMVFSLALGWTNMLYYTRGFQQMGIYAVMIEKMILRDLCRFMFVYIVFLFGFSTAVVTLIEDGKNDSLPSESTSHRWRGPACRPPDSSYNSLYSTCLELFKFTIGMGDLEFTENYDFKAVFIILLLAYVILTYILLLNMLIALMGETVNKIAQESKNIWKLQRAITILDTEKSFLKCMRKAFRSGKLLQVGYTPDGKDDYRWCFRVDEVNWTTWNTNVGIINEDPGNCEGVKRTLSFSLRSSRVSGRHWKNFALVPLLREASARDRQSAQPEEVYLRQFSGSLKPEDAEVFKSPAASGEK
# fatty acid amide hydrolase (FAAH), sequence (P97612 whole entry): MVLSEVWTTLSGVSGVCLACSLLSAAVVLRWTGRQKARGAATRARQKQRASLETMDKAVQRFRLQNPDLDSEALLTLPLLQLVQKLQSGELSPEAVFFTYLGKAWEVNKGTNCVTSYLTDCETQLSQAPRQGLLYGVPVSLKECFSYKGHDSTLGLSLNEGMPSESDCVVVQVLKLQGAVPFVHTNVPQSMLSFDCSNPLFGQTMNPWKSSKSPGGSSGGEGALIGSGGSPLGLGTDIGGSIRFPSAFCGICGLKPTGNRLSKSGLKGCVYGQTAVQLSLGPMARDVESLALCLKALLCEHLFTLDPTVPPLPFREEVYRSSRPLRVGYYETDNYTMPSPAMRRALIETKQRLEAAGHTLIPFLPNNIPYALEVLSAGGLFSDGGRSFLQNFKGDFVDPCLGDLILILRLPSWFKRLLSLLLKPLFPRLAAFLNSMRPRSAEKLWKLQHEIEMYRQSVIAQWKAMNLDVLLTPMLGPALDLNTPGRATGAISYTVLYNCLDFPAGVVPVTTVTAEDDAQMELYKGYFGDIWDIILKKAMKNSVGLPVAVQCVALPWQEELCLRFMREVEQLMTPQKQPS
smiles,measurement,setting,value
"CCCCCC=CCC=CCC=CCC=CCCCC(=O)NCCc1c[nH]c2ccc(O)cc12 [AA-5-HT, N-arachidonoyl-serotonin]",type of FAAH inhibition,[1],mixed inhibitors
same,nocifensive response to formalin,[2],"selectively block the 2nd, inflammatory phase"
same,IC50,TRPV1 channels,130 nM
same,anandamide levels in the PAG,anandamide levels,elevated
same,nociceptive response to formalin,[3]; 4 μg/rat injected directly into PAG,potently inhibits both phases
same,anti-hyperalgesic effect in presence of CB1 receptor antagonist AM251,"[3]; intra-PAG, with AM251 (nmol/rat)",counteracted
same,anti-hyperalgesic effect in presence of TRPV1 antagonist capsazepine,"[3]; intra-PAG, with capsazepine 6 nmol/rat",occluded
